Assay results reported in patent publication US20060189539A1, “Novel GnRH analogues with antitumour effects and pharmaceutical compositions thereof” (priority 1994, published 2006).
Non-standard residues stand in square brackets, D forms with d. Residues, ends and D or L forms follow the SMILES beside them. dPhe(4-Cl) = N[C@H](Cc1ccc(Cl)cc1)C(=O)O

Columns and labels:
[1] = system: MCF-7 human mammary carcinoma cell line; experiment: Inhibition of colony formation (dose-survival), Example 48; format: cell-based
Description: MCF-7 human mammary carcinoma cell line was stabilized in 1973 by Soule et al. from the pleural fluid of a patient suffering from mammary carcinoma. MDA-MB-231 human mammary carcinoma cell line was isolated and stabilized by Cailleau et al. in 1974 similarly from pleural fluid. Both cell lines grow in monolayer. […] MCF-7 cell line is estradiol receptor (ER)-positive containing proteins specifically binding GnRH. Thus, it represents, a useful model system for investigating the direct effect of GnRH mediated by the GnRH receptor. Being ER-negative and GnRH receptor-positive, MDA-MB-231 cell line is similarly suitable to study the direct effect of GnRH. PC3 human prostate carcinoma cell line was stabilized in cell culture by Kaighn et al. in 1979. The cells are of epithelial type and form compact colonies in clonogenic assays. The Ishikawa cell line originates from human endometrial adenocarcinoma [M. Nishida et al.: Acta Obstet. Gynecol. Jpn. 37, 1103-1111 (1985)], it is epithelial in its character and contains steroid-as well as GnRH receptors. The examination gives accurate information about the cell-damaging effect of the substance tested as a function of varying doses. The treatment was carried out once; the colonies formed from the surviving cells were counted after 8-12 days. […] A part of the arrested cells again entered the cycle, an other part of them might be destroyed (apoptosis). […] The treatment was once carried out 24 hours after setting, then the colonies formed were counted after 8-12 days. The cells were treated once after 24 hours with 1-50 μM of various GnRH analogues of Examples above or with 1-50 μM of GnRH-III, respectively. The percentages of inhibition obtained on MCF-7, MDA-MB-231, PC3 and Ishikawa cells, respectively, together with the dose of the active agent used are shown in Table VIII.

[2] = system: PC3 human prostate carcinoma cell line; experiment: Inhibition of colony formation (dose-survival), Example 18; format: cell-based; details: 50 μM
Description: (§1) Human cell lines used in in vitro experiments. MCF-7 human mammary tumour cell line was stabilized in 1973 by Soule et al. from the pleural fluid of mammary carcinoma patients. The cells grow in monolayer and are epithelial in their character. MDA-MB-231 human mammary carcinoma cell line was isolated and stabilized in 1974 by Cailleau et al. similarly from pleural fluid. These cells also grow in monolayer. PC3 human prostate carcinoma cell line was stabilized 20 in 1979 in cell culture by Kaighn et al.; the cells are of simple epithelium type and form compact colonies in clonogenic assays. Ishikawa cell line originated from adenocarcinoma of human endometrium [Nishida et al.: Obstet. Gynecol. Jpn, 37, 25 1103-1111 (1985)], has epithelial character and contains steroid as well as GnRH receptors. Human tumour cell lines are maintained in plastic flasks (Greiner) in Dulbecco-6modified Eagle-MEM (DMEM GIBCO) nutritive medium. The medium used herein contained 10% of fetal calf serum (FCS).
(§2) In the case of cytostatics the cell-damaging effect is not cell-specific. […] One part of the arrested cells again go into the cycle, the other part may perish (apoptosis). […] The investigations were carried out on MCF-7 and MDA-MB-231 human mammary carcinoma cell lines, PC3 human prostate 15 carcinoma cell line and Ishikawa human endometrium carcinoma cell line. Threehundred cells were set into Petri dishes of 3.5 cm in diameter each. The treatment was carried out once, 24 hours following the explantation, then the colonies formed were counted after 9 to 12 days.

[3] = system: Ishikawa human endometrium carcinoma cell line; experiment: as above; format: cell-based; details: 50 μM
Description: as §1, §2

[4] = system: MDA-MB-231 human mammary carcinoma cell line; experiment: Inhibition of colony formation (dose-survival), Example 48; format: cell-based
Description: (§3) MCF-7 human mammary carcinoma cell line was stabilized in 1973 by Soule et al. from the pleural fluid of a patient suffering from mammary carcinoma. MDA-MB-231 human mammary carcinoma cell line was isolated and stabilized by Cailleau et al. in 1974 similarly from pleural fluid. Both cell lines grow in monolayer. MCF-7 and MDA-MB-231 human mammary carcinoma cell lines are maintained in plastic flasks (Greiner), in Dulbecco-modified Eagle-MEM (DMEM, GIBCO) liquid nutrient medium containing 10% of fetal calf serum. MCF-7 cell line is estradiol receptor (ER)-positive containing proteins specifically binding GnRH. Thus, it represents, a useful model system for investigating the direct effect of GnRH mediated by the GnRH receptor. Being ER-negative and GnRH receptor-positive, MDA-MB-231 cell line is similarly suitable to study the direct effect of GnRH. PC3 human prostate carcinoma cell line was stabilized in cell culture by Kaighn et al. in 1979. The cells are of epithelial type and form compact colonies in clonogenic assays. The Ishikawa cell line originates from human endometrial adenocarcinoma [M. Nishida et al.: Acta Obstet. Gynecol. Jpn. 37, 1103-1111 (1985)], it is epithelial in its character and contains steroid-as well as GnRH receptors.
(§4) The examination gives accurate information about the cell-damaging effect of the substance tested as a function of varying doses. The treatment was carried out once; the colonies formed from the surviving cells were counted after 8-12 days. […] A part of the arrested cells again entered the cycle, an other part of them might be destroyed (apoptosis). […] In the case of a dose-response investigation, colonies containing less than 15 cells were not counted. 300 cells were put into each Petri dishes of 3.5 cm in diameter. The treatment was once carried out 24 hours after setting, then the colonies formed were counted after 8-12 days. The cells were treated once after 24 hours with 1-50 μM of various GnRH analogues of Examples above or with 1-50 μM of GnRH-III, respectively. The percentages of inhibition obtained on MCF-7, MDA-MB-231, PC3 and Ishikawa cells, respectively, together with the dose of the active agent used are shown in Table VIII.

human tumor cell lines = experiment: Colony formation, Example 48, comparison with control D-Trp6-hGnRH; format: cell-based; details: data of Table VIII
Method: as §4
In these studies the D-Trp6-hGnRH analogue (Sigma Co.) commonly used in the tumour therapy was employed as control.

[5] = system: Ishikawa endometrium tumour cell culture; experiment: Inhibition of colony formation (dose-survival), Example 48; format: cell-based, human; details: 50 μM
Description: as §3, §4

MXT mouse mammary tumour = experiment: In vivo antitumour effect on MXT mouse mammary tumour; design: species or system CBA/Ca mice
Method: The MXT mouse mammary carcinoma contains ER and PgR proteins; furthermore, it contains also GnRH receptors; therefore, this in vivo tumor model is suitable for studying both the direct and indirect effects. The treatment of mice bearing MXT mammary tumour was commenced on the day following transplantation. […] The animals were daily treated in s.c. route starting from the day following transplantation of MXT mouse mammary tumour. […] MI-1544: 75 μg/day/animal; MI-1892: 75 μg/day/animal.

[6] = system: PC3 prostate tumour cell culture; experiment: Inhibition of colony formation (dose-survival), Example 48; format: cell-based, human; details: for % Inhibition of colony formation: 50 μM; for Effect on colony-forming ability: within the dose range used (1-50 μM)
Description: as §3, §4

[7] = system: MCF-7 human mammary carcinoma cell line; experiment: Inhibition of colony formation (dose-survival), Example 18; format: cell-based; details: 50 μM
Description: as §1, §2

## Ac-D-Trp^1,3,D-Cpa2,{Lys[n-poly(N-vinylpyrrolidone-co-maleic acid)-Ahx]}5,[a-Asp(DEA)]6,D-Ala10-GnRH [P-Ahx-1892]
[1]; 50 μM
  % Inhibition of colony formation: 31%

## {D-Lys[n-poly(N-vinylpyrrolidone-co-maleic acid)-Gly-Phe-Leu-Gly]}6,-GnRH [P-GFLG-609]
[1]; 10 μM
  % Inhibition of colony formation: 40%

## {Lys[n-poly(N-vinylpyrrolidone-co-maleic acid)-Gly-Phe-Leu-Gly-]}5,cyclo(Asp6-Lys8)-GnRH-III [P-GFLG-Lys5-cyclo(Asp6,Lys8)-GnRH-III]
[2]
  % Inhibition of colony formation: 100%
[3]
  % Inhibition of colony formation: 19%

## CC(C)C[C@H](NC(=O)[C@@H](Cc1c[nH]c2ccccc12)NC(=O)[C@H](Cc1ccc(O)cc1)NC(=O)[C@H](CO)NC(=O)[C@H](Cc1c[nH]c2ccccc12)NC(=O)[C@H](Cc1c[nH]cn1)NC(=O)[C@@H]1CCC(=O)N1)C(=O)N[C@@H](CCCNC(=N)N)C(=O)N1CCC[C@H]1C(=O)NCC(N)=O [D-Trp6-hGnRH, pGlu-His-Trp-Ser-Tyr-D-Trp-Leu-Arg-Pro-Gly-NH2, reference compound]
[4]; 10 μM
  % Inhibition of colony formation: 15.7%
[4]; 50 μM
  % Inhibition of colony formation: 38.7%
[1]; 10 μM
  % Inhibition of colony formation: 17.1%
[1]; 50 μM
  % Inhibition of colony formation: 36.7%

## [Trp(For-Ind)]^3,7-GnRH-III [Compound 14]
Human tumor cell lines
  Inhibitory effect on colony formation compared with control D-Trp6-hGnRH: approximated the activity of the control
[5]
  % Inhibition of colony formation: 24%

## CC(=O)N[C@H](Cc1c[nH]c2ccccc12)C(=O)N[C@H](Cc1ccc(Cl)cc1)C(=O)N[C@H](Cc1c[nH]c2ccccc12)C(=O)N[C@@H](CO)C(=O)N[C@@H](Cc1ccc(O)cc1)C(=O)N[C@H](CCCCN)C(=O)N[C@@H](CC(C)C)C(=O)N[C@@H](CCCNC(=N)N)C(=O)N1CCC[C@H]1C(=O)N[C@H](C)C(N)=O [MI-1544, Ac-D-Trp^1,3,D-Cpa^2,D-Lys^6, D-Ala^10-hGnRH] (Ac-[dW][dPhe(4-Cl)][dW]SY[dK]LRP[dA]-NH2)
MXT mouse mammary tumour; 75 μg/day/animal s.c., day 20
  Tumour volume as control (%): 54%
MXT mouse mammary tumour; 1 × 75 μg daily s.c.
  Inhibition %: 46%
MXT mouse mammary tumour; 1 × 75 μg daily s.c., Treatment weeks: 20
  Tumour volume as control (%): 54%

## Glu^6-GnRH-III [Compound 8]
[4]; 50 μM
  % Inhibition of colony formation: 25%
Human tumor cell lines
  Inhibitory effect on colony formation compared with control D-Trp6-hGnRH: exceeded the inhibitory effect of control
[5]
  % Inhibition of colony formation: 2%
[6]
  % Inhibition of colony formation: 31%

## Phe^7-GnRH-III [Compound 15]
[4]; 50 μM
  % Inhibition of colony formation: 21%
Human tumor cell lines
  Inhibitory effect on colony formation compared with control D-Trp6-hGnRH: weak if any effect

## [Lys(ε-Fmoc)]^5-GnRH-III [Compound 1]
Human tumor cell lines
  Inhibitory effect on colony formation compared with control D-Trp6-hGnRH: weak if any effect

## H-Glu^1, D-Trp^6-hGnRH [Compound 19]
Human tumor cell lines
  Inhibitory effect on colony formation compared with control D-Trp6-hGnRH: approximated the activity of the control
[1]; 10 μM
  % Inhibition of colony formation: 16.8%
[1]; 50 μM
  % Inhibition of colony formation: 32.7%

## Lys^5,cyclo[Asp^6-Lys^8]-GnRH-III [Compound 3]
Human tumor cell lines
  Inhibitory effect on colony formation compared with control D-Trp6-hGnRH: exceeded the inhibitory effect of control
[5]
  % Inhibition of colony formation: 13%
[3]
  % Inhibition of colony formation: 13%
[7]
  % Inhibition of colony formation: 44%
[1]; 50 μM
  % Inhibition of colony formation: 44%

## Lys^5-GnRH-III [Compound 2]
[4]; 50 μM
  % Inhibition of colony formation: 0%
[1]; 50 μM
  % Inhibition of colony formation: 0%

## Lys^5, D-Trp^6-hGnRH [Compound 17]
[4]; 10 μM
  % Inhibition of colony formation: 30%
[4]; 50 μM
  % Inhibition of colony formation: 63%
Human tumor cell lines
  Inhibitory effect on colony formation compared with control D-Trp6-hGnRH: twice stronger inhibition
[5]
  % Inhibition of colony formation: 17%
[6]
  % Inhibition of colony formation: 18%
  Effect on colony-forming ability: weakly inhibited
[1]; 50 μM
  % Inhibition of colony formation: 65%

## [Lys(ε-Ac)]^4-GnRH-III [Compound 7]
[4]; 10 μM
  % Inhibition of colony formation: 31%
[4]; 50 μM
  % Inhibition of colony formation: 42%
Human tumor cell lines
  Inhibitory effect on colony formation compared with control D-Trp6-hGnRH: exceeded the inhibitory effect of control
[5]
  % Inhibition of colony formation: 14%
[6]
  % Inhibition of colony formation: 0%
  Effect on colony-forming ability: did not influence
[1]; 50 μM
  % Inhibition of colony formation: 52%
